Assays:
[1] = target: T1, recombinant human baculovirus-expressed VEGFR1 cytoplasmic domain (Homo sapiens, UniProt P17948); experiment: VEGFR1 kinase inhibition assay (ELISA-based, time-resolved fluorescence); format: biochemical; conditions: 1 uM compound, 30 μM ATP; for inhibition at 1 µM: read-out: VEGFR-1 kinase % inhibition @ 1 uM
T1 construct: recombinant human baculovirus-expressed VEGFR1 cytoplasmic domain; host or cells: baculovirus expression system
T1 sequence (P17948 781-1338 limits assumed): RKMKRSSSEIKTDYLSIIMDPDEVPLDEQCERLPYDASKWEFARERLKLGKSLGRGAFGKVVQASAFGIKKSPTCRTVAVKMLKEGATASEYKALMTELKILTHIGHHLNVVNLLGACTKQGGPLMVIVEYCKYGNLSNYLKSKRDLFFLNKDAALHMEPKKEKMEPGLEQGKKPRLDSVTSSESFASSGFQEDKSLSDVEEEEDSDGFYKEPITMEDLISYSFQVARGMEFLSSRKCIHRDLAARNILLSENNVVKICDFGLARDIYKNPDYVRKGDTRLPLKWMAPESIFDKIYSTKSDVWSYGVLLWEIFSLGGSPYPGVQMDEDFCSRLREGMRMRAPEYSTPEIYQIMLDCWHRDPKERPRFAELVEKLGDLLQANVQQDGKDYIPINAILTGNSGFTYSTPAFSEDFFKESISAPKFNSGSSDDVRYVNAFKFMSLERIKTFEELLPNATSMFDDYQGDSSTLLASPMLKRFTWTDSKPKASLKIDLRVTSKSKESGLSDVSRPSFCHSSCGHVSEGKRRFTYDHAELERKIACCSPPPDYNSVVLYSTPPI
Experimental: Inhibition of Vascular Endothelial Growth Factor Receptor-1 Kinase Activity
The VEGFR1 kinase activity assay utilizes an ELISA-based format in a 96-well FluoroNUNC Maxisorp plate with a time-resolved fluorescence readout. The plate was coated with 100 μl/well of substrate solution (recombinant human PLC-γ/GST) at a concentration of 40 μg/ml in Tris buffered saline (TBS). The VEGFR1 activity was assayed in 100-μl assay micture containing 50 mM HEPES (pH 7.4), 30 μM ATP, 10 mM MnCl2, 0.1% BSA, 2% DMSO, and 300 ng/ml prephosphorylated recombinant human baculovirus-expressed VEGFR1 cytoplasmic domain. Compounds were screened for inhibition of the VEGFR1 kinase activity at a concentration of 1 μM. The kinase reaction was allowed to proceed at 37° C. for 15 minutes. The detection antibody, europium-labeled anti-phosphotyrosine antibody (Wallac #CR04-100), was added at 1:5000 dilution in block buffer (3% BSA in TBST). After a 1-hour incubation at 37° C., 100 μl of enhancement solution (Wallac #1244-105) was added and the plate was gently agitated. After 5 min, the fluorescence of the resulting solution was measured using the BMG Fluostar (Model # 403).

[2] = target: T2, recombinant human baculovirus-expressed FGFR1 cytoplasmic domain (Homo sapiens, UniProt P11362); experiment: FGFR1 kinase inhibition assay (ELISA-based, time-resolved fluorescence); format: biochemical; conditions: 1 uM compound; 20 μM ATP
T2 construct: recombinant human baculovirus-expressed FGFR1 cytoplasmic domain; host or cells: baculovirus expression system
Experimental: Inhibition of Fibroblast Growth Factor Receptor-1 (FGFR1) Kinase Activity
The FGFR1 kinase activity was measured using an ELISA-based format in a 96-well FluoroNUNC Maxisorp plate with a time-resolved fluorescence readout as described for trkA kinase. The plate was coated with 100 μl/well of substrate solution (recombinant human PLC-γ/GST) at a concentration of 10 μg/ml in Tris buffered saline (TBS). The FDGFR1 activity was assayed in 100-μl assay micture containing 50 mM HEPES (pH 7.4), 20 μM ATP, 10 mM MnCl2, 0.1% BSA, 2% DMSO, and 15 ng/ml recombinant human baculovirus-expressed FGFR1 cytoplasmic domain (prephosphorylated prior to use). Compounds were screened for inhibition of the FGFR1 kinase activity at a conentration of 1 μM. The kinase reaction was allowed to proceed at 37° C. for 15 minutes. The detection antibody, europium-labeled anti-phosphotyrosine antibody (Wallace #CR04-100), was added at 1:5000 dilution in block buffer (3% BSA in TBST). After a 1-hour incubation at 37° C., 100 μl of enhancement solution (Wallac #1244-105) and the plate was gently agitated. After 5 min, the fluorescence of the resulting solutions measured using the BMG Fluostar (Model # 403).

T2 sequence (P11362 398-822 limits assumed): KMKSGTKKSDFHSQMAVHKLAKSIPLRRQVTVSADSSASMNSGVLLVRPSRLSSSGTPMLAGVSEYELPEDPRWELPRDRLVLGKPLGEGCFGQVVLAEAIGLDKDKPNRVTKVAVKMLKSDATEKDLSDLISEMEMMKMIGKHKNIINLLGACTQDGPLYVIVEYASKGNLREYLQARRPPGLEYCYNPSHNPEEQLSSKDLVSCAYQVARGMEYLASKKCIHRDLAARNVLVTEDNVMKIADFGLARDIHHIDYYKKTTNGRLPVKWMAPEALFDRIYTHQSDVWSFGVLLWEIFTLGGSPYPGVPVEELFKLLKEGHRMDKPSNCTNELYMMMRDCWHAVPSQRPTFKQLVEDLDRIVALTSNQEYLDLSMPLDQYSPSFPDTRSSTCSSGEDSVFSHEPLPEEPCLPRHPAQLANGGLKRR

Cc1cc(C)c(C=C2C(=O)NN=C2c2ccoc2)[nH]1 [Compound 1]
VEGFR-1 kinase % inhibition @ 1 uM [1]: 35% | FGFR1 % inhibition @ 1 uM [2]: 6%

Cc1cc(C)c(C=C2C(=O)NN=C2C2c3ccccc3Oc3ccccc32)[nH]1 [Compound 2]
VEGFR-1 kinase % inhibition @ 1 uM [1]: 9% | FGFR1 % inhibition @ 1 uM [2]: 33%

Cc1cc(C)c(C=C2C(=O)NN=C2c2ccncc2)[nH]1 [Compound 3]
VEGFR-1 kinase % inhibition @ 1 uM [1]: 22% | FGFR1 % inhibition @ 1 uM [2]: 29%

O=C1NN=C(c2ccoc2)C1=CC=C(c1ccccc1)c1ccccc1 [Compound 4]
VEGFR-1 kinase % inhibition @ 1 uM [1]: 20% | FGFR1 % inhibition @ 1 uM [2]: 20%

CCc1c(C=C2C(=O)NN=C2c2ccoc2)[nH]c(C(=O)OCc2ccccc2)c1C [Compound 5]
VEGFR-1 kinase % inhibition @ 1 uM [1]: 10% | FGFR1 % inhibition @ 1 uM [2]: −2%

Cc1c(I)[nH]c(C=C2C(=O)NN=C2c2ccoc2)c1I [Compound 6]
VEGFR-1 kinase % inhibition @ 1 uM [1]: 14% | FGFR1 % inhibition @ 1 uM [2]: 20%

CCOC(=O)CCc1c(C(=O)OCC)[nH]c(C=C2C(=O)NN=C2c2ccoc2)c1CC(=O)OCC [Compound 7]
VEGFR-1 kinase % inhibition @ 1 uM [1]: 13% | FGFR1 % inhibition @ 1 uM [2]: 28%

Cc1[nH]c(C=C2C(=O)NN=C2c2ccoc2)c(Br)c1Br [Compound 8]
VEGFR-1 kinase % inhibition @ 1 uM [1]: 21% | FGFR1 % inhibition @ 1 uM [2]: 24%

O=C1NN=C(c2ccoc2)C1=Cc1c[nH]c2ccccc12 [Compound 9]
VEGFR-1 kinase % inhibition @ 1 uM [1]: 51% | FGFR1 % inhibition @ 1 uM [2]: 17%

Cc1cc(C)c(C=C2C(=O)NN=C2c2cccnc2)[nH]1 [Compound 10]
VEGFR-1 kinase % inhibition @ 1 uM [1]: 41% | FGFR1 % inhibition @ 1 uM [2]: 14%

COc1ccc2[nH]cc(C=C3C(=O)NN=C3c3ccoc3)c2c1 [Compound 11]
VEGFR-1 kinase % inhibition @ 1 uM [1]: 23% | FGFR1 % inhibition @ 1 uM [2]: 24%

O=C1NN=C(c2ccoc2)C1=Cc1ccc[nH]1 [Compound 12]
VEGFR-1 kinase % inhibition @ 1 uM [1]: 29% | FGFR1 % inhibition @ 1 uM [2]: 39%

Cc1nc(C)c(C2=NNC(=O)C2=Cc2c[nH]c3ccccc23)s1 [Compound 13]
VEGFR-1 kinase % inhibition @ 1 uM [1]: 39% | FGFR1 % inhibition @ 1 uM [2]: 30%

Cc1cc(C)c(C=C2C(=O)NN=C2c2sc(C)nc2C)[nH]1 [Compound 14]
VEGFR-1 kinase % inhibition @ 1 uM [1]: 8% | FGFR1 % inhibition @ 1 uM [2]: 22%

O=C1NN=C(c2ccoc2)C1=Cc1ncc[nH]1 [Compound 15]
VEGFR-1 kinase % inhibition @ 1 uM [1]: 12% | FGFR1 % inhibition @ 1 uM [2]: 10%

COC(=O)c1ccc2[nH]cc(C=C3C(=O)NN=C3c3ccoc3)c2c1 [Compound 16]
VEGFR-1 kinase % inhibition @ 1 uM [1]: 18% | FGFR1 % inhibition @ 1 uM [2]: 1%

O=C1NN=C(c2ccoc2)C1=Cc1c[nH]c2ccc(Cl)cc12 [Compound 17]
VEGFR-1 kinase % inhibition @ 1 uM [1]: 17% | FGFR1 % inhibition @ 1 uM [2]: 13%

O=C1NN=C(c2ccoc2)C1=Cc1c[nH]c2cccc(OCc3ccccc3)c12 [Compound 18]
VEGFR-1 kinase % inhibition @ 1 uM [1]: 9% | FGFR1 % inhibition @ 1 uM [2]: 22%

O=C1NN=C(c2ccoc2)C1=Cc1c[nH]c2ccc(F)cc12 [Compound 19]
VEGFR-1 kinase % inhibition @ 1 uM [1]: 30% | FGFR1 % inhibition @ 1 uM [2]: 23%

Cn1cc(C=C2C(=O)NN=C2c2ccoc2)c2ccccc21 [Compound 20]
VEGFR-1 kinase % inhibition @ 1 uM [1]: 45% | FGFR1 % inhibition @ 1 uM [2]: 27%

O=C1NN=C(c2ccoc2)C1=Cc1c[nH]c2ccc(OCc3ccccc3)cc12 [Compound 21]
VEGFR-1 kinase % inhibition @ 1 uM [1]: 0% | FGFR1 % inhibition @ 1 uM [2]: 15%

Cc1cccc2c(C=C3C(=O)NN=C3c3ccoc3)c[nH]c12 [Compound 22]
VEGFR-1 kinase % inhibition @ 1 uM [1]: 23% | FGFR1 % inhibition @ 1 uM [2]: 22%

Cc1cc(C)c(C=C2C(=O)NN=C2c2ccn(C)c2)[nH]1 [Compound 23]
VEGFR-1 kinase % inhibition @ 1 uM [1]: 2% | FGFR1 % inhibition @ 1 uM [2]: 31%

Cn1ccc(C2=NNC(=O)C2=Cc2c[nH]c3ccccc23)c1 [Compound 24]
VEGFR-1 kinase % inhibition @ 1 uM [1]: 39% | FGFR1 % inhibition @ 1 uM [2]: 39%

O=C1NN=C(c2nccs2)C1=Cc1c[nH]c2ccccc12 [Compound 25, 4-(indol-3-ylmethylene)-3-(1,3-thiazol-2-yl)-2-pyrazolin-5-one]
inhibition at 1 µM [1]: 66% | inhibition at 1 µM [2]: 52%

Cc1cc(C)c(C=C2C(=O)NN=C2c2nccs2)[nH]1 [Compound 26, 4-[(3,5-dimethylpyrrol-2-yl)methylene]-3-(1,3-thiazol-2-yl)-2 pyrazolin-5-one]
inhibition at 1 µM [1]: 64% | inhibition at 1 µM [2]: 46%

Cc1cc(C)c(C=C2C(=O)NN=C2c2c(C)coc2C)[nH]1 [Compound 27]
VEGFR-1 kinase % inhibition @ 1 uM [1]: 11% | FGFR1 % inhibition @ 1 uM [2]: 36%

Cc1cc(C)c(C=C2C(=O)NN=C2c2ccco2)[nH]1 [Compound 28, 4-[(3,5-dimethylpyrrol-2-yl)methylene]-3-(2-furyl)-2-pyrazolin-5-one]
inhibition at 1 µM [1]: 36% | inhibition at 1 µM [2]: 37%

O=C1NN=C(c2ccco2)C1=Cc1c[nH]c2ccccc12 [Compound 29, 3-(2-furyl)-4-(indol-3-ylmethylene)-2-pyrazolin-5-one]
inhibition at 1 µM [1]: 53% | inhibition at 1 µM [2]: 41%

Cc1cc(C)c(C=C2C(=O)NN=C2c2ccccn2)[nH]1 [Compound 30]
VEGFR-1 kinase % inhibition @ 1 uM [1]: 41% | FGFR1 % inhibition @ 1 uM [2]: 27%

Cn1ccc(C2=NNC(=O)C2=Cc2c[nH]c3cccc(OCc4ccccc4)c23)c1 [Compound 31]
VEGFR-1 kinase % inhibition @ 1 uM [1]: 10% | FGFR1 % inhibition @ 1 uM [2]: 17%

Cn1ccc(C2=NNC(=O)C2=Cc2c[nH]c3ccc(F)cc23)c1 [Compound 32]
VEGFR-1 kinase % inhibition @ 1 uM [1]: 48% | FGFR1 % inhibition @ 1 uM [2]: 4%

Cc1ccc2c(C=C3C(=O)NN=C3c3ccn(C)c3)c[nH]c2c1 [Compound 33]
VEGFR-1 kinase % inhibition @ 1 uM [1]: 36% | FGFR1 % inhibition @ 1 uM [2]: 27%

Cc1cccc2c(C=C3C(=O)NN=C3c3ccn(C)c3)c[nH]c12 [Compound 34]
VEGFR-1 kinase % inhibition @ 1 uM [1]: 30% | FGFR1 % inhibition @ 1 uM [2]: 34%

Cn1ccc(C2=NNC(=O)C2=Cc2c[nH]c3ccc(Cl)cc23)c1 [Compound 35]
VEGFR-1 kinase % inhibition @ 1 uM [1]: 10% | FGFR1 % inhibition @ 1 uM [2]: 29%

Cc1cc(C)c(C=C2C(=O)NN=C2c2cc(C)oc2C)[nH]1 [Compound 36]
VEGFR-1 kinase % inhibition @ 1 uM [1]: 14% | FGFR1 % inhibition @ 1 uM [2]: 31%

Cc1cc(C)c(C=C2C(=O)NN=C2c2ccsc2)[nH]1 [Compound 37, 4-[(3,5-dimethylpyrrol-2-yl)methylene]-3-(3-thienyl)-2-pyrazolin-5-one]
inhibition at 1 µM [1]: 14% | inhibition at 1 µM [2]: 32%

O=C1NN=C(c2cccs2)C1=Cc1c[nH]c2ccccc12 [Compound 38, 4-(indol-3-ylmethylene)-3-(2-thienyl)-2-pyrazolin-5-one]
inhibition at 1 µM [1]: 28% | inhibition at 1 µM [2]: 28%

Cc1cc(C)c(C=C2C(=O)NN=C2c2csc3ccccc23)[nH]1 [Compound 39]
VEGFR-1 kinase % inhibition @ 1 uM [1]: 4% | FGFR1 % inhibition @ 1 uM [2]: 13%

Cc1cc(C)c(C=C2C(=O)NN=C2c2csc(-c3ccccc3)n2)[nH]1 [Compound 40]
VEGFR-1 kinase % inhibition @ 1 uM [1]: 16% | FGFR1 % inhibition @ 1 uM [2]: 22%

Cc1cc(C)c(C=C2C(=O)NN=C2c2cc(-c3ccc(Cl)cc3)oc2C)[nH]1 [Compound 41]
VEGFR-1 kinase % inhibition @ 1 uM [1]: 5% | FGFR1 % inhibition @ 1 uM [2]: 21%

Cc1oc(-c2ccc(Cl)cc2)cc1C1=NNC(=O)C1=Cc1c[nH]c2ccccc12 [Compound 42]
VEGFR-1 kinase % inhibition @ 1 uM [1]: 13% | FGFR1 % inhibition @ 1 uM [2]: 32%

O=C1NN=C(c2ccco2)C1=Cc1c[nH]c2ccc(OCc3ccccc3)cc12 [Compound 43]
VEGFR-1 kinase % inhibition @ 1 uM [1]: −2% | FGFR1 % inhibition @ 1 uM [2]: 26%

From patent US6831075B2, “Heterocyclic substituted pyrazolones” (Cephalon, Inc., priority 1999, dated 2004)
